Counter-ions that a name gives are not always drawn.

Consider 20 compounds from US20240208945A1, “6-CARBAMATE SUBSTITUTED HETEROARYL RING DERIVATIVES” (MEDSHINE DISCOVERY INC., priority 2021, published 2024).

The target in data set [1] is binding of KRAS(G12C) to SOS1 (Homo sapiens (Human), UniProt Q07889). The experiment in a line: KRAS(G12C) and SOS1 binding assay (HTRF). Conditions: 25° C., 60 minutes. An excerpt: The small molecular compound binds to the catalytic site of SOS1, thus inhibiting the binding of SOS1 to KRAS (G12C). When the binding of fluorescently labeled SOS1 protein to fluorescently labeled KRAS (G12C) protein is inhibited, the emitted fluorescence changes. The ability of small molecules to prevent the binding of SOS1 to KRAS (G12C) can be tested by detecting changes in fluorescence. A homogeneous time-resolved fluorescence (HTRF) binding assay was used to detect the ability of the compounds of the present disclosure to inhibit the binding of SOS1 to KRAS (G12C).
KRAS (G12C) protein was expressed and purified by Wuhan AtaGenix Biotechnology Co., Ltd., SOS1 exchange domin (564-1049) protein (Human recombinant) was purchased from Cytoskeleton, Mab Anti 6HIS-XL665 and Mab Anti GST-Eu cryptate were purchased from Cisbio. Multimode microplate reader Nivo5 was purchased from PerkinElmer.
1× buffer preparation (ready-to-use): Hepes: 5 mM; NaCl: 150 mM; EDTA: 10 mM; Igepal: 0.0025%; KF: 100 mM; DTT: 1 mM; BSA: […];
The test compounds were 5-fold diluted with DMSO using a multi-channel pipette to the 8th concentration, i.e., diluted from 1 mM to 0.064 μM.
The test compound was diluted by gradient with 1× buffer to a working solution with 2% DMSO. 5 μL/well of the working solution was added to corresponding wells, and the corresponding concentration gradient was 20 μM to […]. Duplicate experiment was set. The working solution was centrifuged at 1000 rpm for 1 minute.
A mixed working solution of KRAS(G12C) (200 nM) and Mab Anti GST-Eu cryptate (1 ng/μL) was prepared with 1× buffer, and the mixed working solution was incubated at 25° C. for 5 minutes, and 2.5 μL/well of the mixed working solution was added to the corresponding wells.
A mixed working solution of SOS1 (80 nM) and Mab Anti 6HIS-XL665 ([…]) was prepared with 1× buffer, and 2.5 μL/well of the mixed working solution was added to the corresponding wells. 2.5 μL of Mab Anti 6HIS-XL665 ([…]) diluent was added to blank wells. At this time, the final concentration gradient of the compound was diluted from 10 μM to 0.64 nM, KRAS(G12C) ([…]), MAb Anti GST-Eu cryptate (0.25 ng/μL), SOS1 (20 nM), Mab Anti 6HIS-XL665 (2 g/μL), the reaction system was placed at 25° C. for 60 minutes. After the reaction was completed, the multimode microplate reader was used to read HTRF.
Using the equation (Sample−Min)/(Max−Min)×100% to convert the raw data into inhibition rate, the IC50 value might be obtained by curve fitting with four parameters (obtained by “log (inhibitor) vs. response—Variable slope” mode in GraphPad Prism).

A further data set deals with p-ERK in DLD-1 cells. The experiment in a line: p-ERK inhibitory activity test in DLD-1 cells (HTRF Phospho-ERK1/2 kit). To be noted: Homo sapiens, 1 hour incubation. The class given is cell-based. As for the experimental part:
DLD-1 cells were purchased from Nanjing Cobioer; 1640 medium was purchased from Biological Industries; fetal bovine serum was purchased from Biosera; Advanced Phospho-ERK1/2 (THR202/TYR204) KIT was purchased from Cisbio.
DLD-1 cells were seeded in a transparent 96-well cell culture plate, with 80 μL of cell suspension per well and 8000 DLD-1 cells per well. The cell plate was incubated in a carbon dioxide incubator at 37° C. overnight; • the test compound was diluted to 2 mM with 100% DMSO as the first concentration, and then 5-fold diluted to the 8th concentration with a pipette, that is, diluted from 2 mM to 0.026 μM. 2 μL of compound was added to 78 μL of cell starvation medium. After mixing well, 20 μL of compound solution was taken and added to the corresponding cell plate wells, and the cell plate was put back to the carbon dioxide incubator to continue to incubate for 1 hour; at this time, the concentration of the compound was from 10 μM to 0.128 nM, and the concentration of DMSO was 0.5%; • after the incubation was completed, the cell supernatant was discarded, and 50 μL of cell lysate was added to each well, and incubated at room temperature for 30 minutes with shaking; • Phospho-ERK1/2 Eu Cryptate antibody and Phospho-ERK1/2 d2 antibody were 20-fold diluted using Detection buffer; • 16 μL of cell lysate supernatant per well was put into a new 384 white microplate, then 2 μL of Phospho-ERK1/2 Eu Cryptate antibody diluent and 2 μL of Phospho-ERK1/2 d2 antibody diluent were added thereto and incubated at room temperature for 4 hours; • after the incubation was completed, a multimode microplate reader was used to read HTRF excitation: 320 nm, emission: 615 nm, 665 nm.
Using the equation (Sample−Min)/(Max−Min)*100% to convert the raw data into inhibition rate, the IC50 value might be obtained by curve fitting with four parameters (obtained by “log (inhibitor) vs. response—Variable slope” mode in GraphPad Prism). • Max well: Positive control well reading is 1× lysate • Min well: Negative control well reading is 0.5% DMSO cell well cell lysate
(TR-FRET usually uses a lanthanide donor and a delayed reading to cut background.)

Data set [2] in a line: Pharmacokinetic evaluation in Balb/c mice (IV and oral). The class given is in vivo. To be noted: male, mouse, plasma; for Cmax: IV 10 mg/kg and oral 50 mg/kg study, read-out: Peak concentration Cmax; for bioavailability / clearance / half-life / Vd: IV 10 mg/kg; for bioavailability / AUC(0-t): PO 50 mg/kg; for bioavailability: read-out: Bioavailability F; for clearance: read-out: Clearance rate CL; for half-life: read-out: Half life T1/2 (IV) (converted); for Vd: read-out: Volume of distribution at steady state Vdss; for AUC(0-t): read-out: Area under drug-time curve AUC0-last PO. As to the method: Balb/c mice (male, Beijing Vital River Laboratory Animal Technology Co., Ltd.)
The pharmacokinetic characteristics of the compound in rodents after intravenous injection and oral administration were tested according to the standard protocol. In the experiment, the candidate compound was formulated into clear solutions, and a single intravenous injection and oral administration were given to mice. The vehicle for intravenous injection and oral administration was a mixed vehicle composed of 5% dimethyl sulfoxide, 5% solutol, and 90% water. In this project, four male Balb/c mice were used, and two mice were administered intravenously at a dose of 10 mg/kg. Plasma samples were collected at 0.083, 0.25, 0.5, 1, 2, 4, 8, and 24 hours after administration. The other two mice were administered orally by gavage at a dose of 50 mg/kg. Plasma samples were collected at 0.25, 0.5, 1, 2, 4, 6, 8, 12, and 24 hours after administration. Blood samples were placed on ice after collection and centrifuged to separate plasma within 1 hour (centrifugation conditions: 6000 g, 3 minutes, 2 to 8° C.). Plasma samples were stored in a −80° C. refrigerator before analysis. The plasma concentration was quantitatively analyzed by LC-MS/MS analysis method, and the pharmacokinetic parameters were calculated, such as peak concentration (Cmax), clearance rate (CL), half-life (T1/2), volume of distribution at steady state (Vdss), area under drug-time curve (AUC0-last), bioavailability (F).

Chain of binding of KRAS(G12C) to SOS1 (Q07889 564-1049, stated change not applied): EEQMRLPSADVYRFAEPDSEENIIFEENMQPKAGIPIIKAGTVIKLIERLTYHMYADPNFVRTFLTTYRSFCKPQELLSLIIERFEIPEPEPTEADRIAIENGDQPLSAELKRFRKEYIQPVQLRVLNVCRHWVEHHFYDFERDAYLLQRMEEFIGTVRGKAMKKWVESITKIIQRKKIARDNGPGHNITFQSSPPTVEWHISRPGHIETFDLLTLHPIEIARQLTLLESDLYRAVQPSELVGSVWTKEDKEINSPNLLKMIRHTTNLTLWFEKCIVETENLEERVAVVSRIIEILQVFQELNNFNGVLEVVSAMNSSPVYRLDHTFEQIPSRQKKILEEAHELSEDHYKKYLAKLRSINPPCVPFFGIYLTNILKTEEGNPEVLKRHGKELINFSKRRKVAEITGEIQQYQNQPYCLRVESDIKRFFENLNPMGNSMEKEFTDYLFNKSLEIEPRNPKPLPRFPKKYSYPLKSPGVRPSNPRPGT

For orientation: IC50 means the concentration at which inhibition is half-maximal. Low readings indicate higher potency, high ones lower potency. `COc1cc2nc(C)nc(N[C@H](C)c3cc(N)cc(C(F)(F)F)c3)c2cc1OC(=O)N1CCN(C)CC1` [Compound 2]: the results for the IC50 (in data set [1]; in the data set on p-ERK in DLD-1 cells) were 110 nM and 122 nM, respectively.

In data set [1], `COc1cc2nc(C)nc(N[C@H](C)c3cc(N)cc(C(F)(F)F)c3)c2cc1OC(=O)N1CCC2(CCOC2)CC1` [Compound 7] had an IC50 of 92.8 nM.

For the compound `COc1cc2nc(C)nc(N[C@H](C)c3cc(N)cc(C(F)(F)F)c3)c2cc1OC(=O)N1CCN(C2COC2)CC1` [Compound 9], the IC50 in data set [1] is 83.6 nM.

Take `COc1cc2nc(C)nc(N[C@H](C)c3cc(N)cc(C(F)(F)F)c3)c2cc1OC(=O)N1CCN2CCCC2C1` (stereo partly drawn) [Compound 10]: half-maximal inhibition in the data set with p-ERK in DLD-1 cells (IC50) was put at 86.2 nM.

Consider `COc1cc2nc(C)nc(N[C@H](C)c3cc(N)cc(C(F)(F)F)c3)c2cc1OC(=O)N1CCC2(CC1)CO[C@H](C)[C@@H]2N` [Compound 11], for which the IC50 in data set [1] stood at 78.6 nM.

For the compound `COc1cc2nc(C)nc(N[C@H](C)c3cc(N)cc(C(F)(F)F)c3)c2cc1OC(=O)N1CCCN(C)CC1C` (stereo partly drawn) [Compound 13], the IC50 in data set [1] stood at 70.4 nM; with p-ERK in DLD-1 cells, 282 nM.

In data set [1], `COc1cc2nc(C)nc(N[C@H](C)c3cccc(C(F)(F)C(C)(C)O)c3F)c2cc1OC(=O)N1CCN(C2COC2)CC12CC2` [Compound 24] came in with an IC50 of 47.9 nM.

In data set [1], `COc1cc2nc(C)nc(N[C@H](C)c3cccc(C(F)F)c3F)c2cc1OC(=O)N1CCNCC12CC2` [Compound 25] returned an IC50 of 86.1 nM.

Regarding `COc1cc2nc(C)nc(N[C@H](C)c3cccc(C(F)F)c3F)c2cc1OC(=O)N1CCN(C2COC2)CC12CC2` [Compound 26], the IC50 in data set [1] turned out to be 65.9 nM; in the data set on p-ERK in DLD-1 cells it was 283 nM.

As to `COc1cc2nc(C)nc(N[C@H](C)c3cc(N)cc(C(F)(F)F)c3F)c2cc1OC(=O)N1CCN(C)CC1C` (stereo partly drawn) [Compound 27], the values for the IC50 (in data set [1]; in the data set with p-ERK in DLD-1 cells) were 40.6 nM and 112 nM, respectively.

As to `COc1cc2nc(C)nc(N[C@H](C)c3cc(N)cc(C(F)(F)F)c3)c2cc1OC(=O)N1CCN(C)CC1C` (stereo partly drawn) [Hydrochloride of compound 4], the figures for the IC50 (in data set [1]; in the data set on p-ERK in DLD-1 cells) were 71.1 nM and 113 nM, respectively.

On to `CCN1CCN(C(=O)Oc2cc3c(N[C@H](C)c4cc(N)cc(C(F)(F)F)c4)nc(C)nc3cc2OC)CC1` [Hydrochloride of compound 5], for which the IC50 came out at 77.3 nM in data set [1] and 219 nM in the data set with p-ERK in DLD-1 cells.

Take `COc1cc2nc(C)nc(N[C@H](C)c3cc(N)cc(C(F)(F)F)c3)c2cc1OC(=O)N1CCNCC1` [Hydrochloride of compound 6]: in data set [1], the IC50 turned out to be 87.6 nM.

Regarding `COc1cc2nc(C)nc(N[C@H](C)c3cc(N)cc(C(F)(F)F)c3)c2cc1OC(=O)N1CCC(N(C)C)CC1` [Hydrochloride of compound 8], in data set [1], the IC50 is 73.7 nM.

Regarding `COc1cc2nc(C)nc(N[C@H](C)c3cccc(C(F)(F)C4CCCO4)c3F)c2cc1OC(=O)N1CCN(C)CC1C` (stereo partly drawn) [Hydrochloride of compound 15], the IC50 in data set [1] was determined as 149 nM.

In the case of `COc1cc2nc(C)nc(N[C@H](C)c3cccc(C(F)(F)CO)c3)c2cc1OC(=O)N1CCN(C)CC1C` (stereo partly drawn) [Hydrochloride of compound 16], the IC50 in data set [1] was 59.6 nM; in the data set on p-ERK in DLD-1 cells, 222 nM.

`COc1cc2nc(C)nc(N[C@H](C)c3cccc(C(F)(F)CO)c3F)c2cc1OC(=O)N1CCN(C)CC1C` (stereo partly drawn) [Hydrochloride of compound 18]: the IC50 in data set [1] was found to be 23.4 nM; with p-ERK in DLD-1 cells, 243 nM.

For the compound `COc1cc2nc(C)nc(N[C@H](C)c3cccc(C(F)F)c3F)c2cc1OC(=O)N1CCN(C)CC1C` (stereo partly drawn) [Hydrochloride of compound 19], the IC50 in data set [1] was found to be 105 nM.

As a reminder, the bioavailability is the share of a dose that reaches the circulation, judged against a reference dose that is usually intravenous. For the compound `COc1cc2nc(C)nc(N[C@H](C)c3cccc(C(F)(F)C(C)(C)O)c3F)c2cc1OC(=O)N1CCN(C)C[C@@H]1C` [Hydrochloride of compound 28], in data set [1], the IC50 was 14.5 nM. In the data set on p-ERK in DLD-1 cells, this compound gave an IC50 of 91.5 nM. Moreover, in data set [2], the Cmax was 4.59 µM, the bioavailability was found to be 98.8%, the clearance stood at 36.7 mL/min/kg and the half-life was 361 min. In data set [2], the Vd is 11.5 L/kg and the AUC(0-t) is 37.5 µM·h.

Regarding `COc1cc2nc(C)nc(N[C@H](C)c3cccc(C(F)(F)C(C)(C)O)c3F)c2cc1OC(=O)N1CCN(C)C[C@H]1C` [Hydrochloride of compound 29], the IC50 in data set [1] came to 14.7 nM. In the data set on p-ERK in DLD-1 cells, this compound returned an IC50 of 135 nM. In data set [2], the Cmax was 10.9 µM, the bioavailability was found to be 91.2%, the clearance turned out to be 18.7 mL/min/kg and the half-life is 208 min. Further, in data set [2], the Vd turned out to be 4.15 L/kg and the AUC(0-t) worked out at 74.6 µM·h.
